Counter-ions that a name gives are not always drawn.

The inhibition is the drop in the measured response relative to a control, in per cent.

The target of the assay is T1, Human PDE10A enzyme (Homo sapiens, UniProt Q9Y233).
T1 construct: transfected with the full-length gene; His-tag; made in house; host or cells: Sf9 or COS-7 cells
The assay can be described thus: PDE enzyme inhibition, SPA (Scintillation Proximity Assay) with [3H]cGMP. The format is biochemical. The settings on record: [3H]cGMP substrate; for inhibition at 1 µM: compound 1 μM, read-out: Percent inhibition (1 μM); for inhibition at 10 µM: compound 10 μM, read-out: Percent inhibition (10 μM); for inhibition at 0.1 µM: compound 0.1 μM, read-out: Percent inhibition (0.1 μM). Here is the method:
Human PDE10A enzyme was generated from Sf9 or COS-7 cells transfected with the full-length gene. Cloned enzyme was extracted from homogenized cell pellets. The extracted enzyme from sf9 cells was partially purified using His-tag affinity column. The enzyme was stored at −70° C. until use. PDE activity was measured using a SPA (Scintillation Proximity Assay) (GE Healthcare). To evaluate the inhibitory activity, 10 μL of serial diluted compounds were incubated with 20 μL of PDE enzyme in assay buffer (50 mM HEPES-NaOH, 8.3 mM MgCl2, 1.7 mM EGTA, 0.1% BSA (pH 7.4)) for 30 min. at room temperature. Final concentration of DMSO in the assay was 1 percent as compounds were tested in duplicate in 96-well half-area plates (Corning). To start the reaction, 10 μL of substrate [^3H] cGMP (25 or 50 nM; enclosed in SPA kits from GE Healthcare or purchased from PerkinElmer, respectively) was added for a final assay volume of 40 μL. After 60 min incubation at room temperature, yttrium SPA beads containing Zinc sulphate were added (20 μL at 6 mg/mL) to terminate the PDE reaction. After being settled for 60 min, assay plates were counted in a scintillation counter (PerkinElmer) to allow calculation of inhibition rate. Inhibition rate was calculated on the basis of 0% control wells with DMSO and 100% control wells without enzyme.
(Scintillation proximity formats need no separation of bound from free tracer.)

T1 sequence (Q9Y233 267-1055): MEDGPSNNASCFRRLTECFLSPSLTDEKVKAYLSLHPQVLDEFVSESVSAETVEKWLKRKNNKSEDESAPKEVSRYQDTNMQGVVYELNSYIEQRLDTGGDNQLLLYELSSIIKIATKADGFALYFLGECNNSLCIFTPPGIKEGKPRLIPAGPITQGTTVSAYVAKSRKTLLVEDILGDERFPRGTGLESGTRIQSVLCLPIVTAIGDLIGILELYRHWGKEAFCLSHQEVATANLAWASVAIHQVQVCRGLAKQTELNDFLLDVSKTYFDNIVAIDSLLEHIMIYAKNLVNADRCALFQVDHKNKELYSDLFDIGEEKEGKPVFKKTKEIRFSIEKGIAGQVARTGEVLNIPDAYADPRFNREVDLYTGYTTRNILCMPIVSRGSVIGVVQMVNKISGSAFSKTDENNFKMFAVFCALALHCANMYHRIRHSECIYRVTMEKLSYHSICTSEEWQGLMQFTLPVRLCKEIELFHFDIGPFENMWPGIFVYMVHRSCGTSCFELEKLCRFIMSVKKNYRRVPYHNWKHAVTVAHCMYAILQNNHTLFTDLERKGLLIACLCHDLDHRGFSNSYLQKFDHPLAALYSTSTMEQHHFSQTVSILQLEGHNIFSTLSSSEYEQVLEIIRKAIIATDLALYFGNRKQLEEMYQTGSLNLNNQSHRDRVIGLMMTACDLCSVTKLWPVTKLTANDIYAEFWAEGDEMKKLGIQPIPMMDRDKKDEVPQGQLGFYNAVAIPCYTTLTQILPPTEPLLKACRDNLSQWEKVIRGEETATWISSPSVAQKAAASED

`O=c1[nH]c2cccnc2n1-c1ccc(Nc2nc3ccccc3o2)cc1` [Example 1, 3-[4-(1,3-benzoxazol-2-ylamino)phenyl]-1,3-dihydro-2H-imidazo[4,5-b]pyridin-2-one]: the inhibition at 1 µM amounted to 98% and the inhibition at 10 µM was 100%. On the same counts, the results for `O=c1[nH]c2cccnc2n1-c1ccc(N2CCn3c2nc2ccccc23)cc1` [Example 2, 3-[4-(2,3-dihydro-1H-imidazo[1,2-a]benzimidazol-1-yl)phenyl]-1,3-dihydro-2H-imidazo[4,5-b]pyridin-2-one] are 104% and 103%. Regarding `Cn1c(=O)n(-c2ccc(N3CCn4c3nc3ccccc34)cc2)c2ncccc21` [Example 3, 3-[4-(2,3-dihydro-1H-imidazo[1,2-a]benzimidazol-1-yl)phenyl]-1-methyl-1,3-dihydro-2H-imidazo[4,5-b]pyridin-2-one], the inhibition at 0.1 µM came to 99%. The same measure, in the same setting: to `CCn1c(=O)n(-c2ccc(Oc3nc4ccccc4[nH]3)cc2)c2ncccc21` [Example 8, 3-[4-(1H-benzimidazol-2-yloxy)phenyl]-1-ethyl-1,3-dihydro-2H-imidazo[4,5-b]pyridin-2-one hydrochloride] belongs 98%.

On to `CC1(C)C(=O)N(c2ccc(Oc3nc4ccccc4[nH]3)cc2)c2ncccc21` [Example 9, 1-[4-(1H-benzimidazol-2-yloxy)phenyl]-3,3-dimethyl-1,3-dihydro-2H-pyrrolo[2,3-b]pyridin-2-one dihydrochloride], for which the inhibition at 1 µM turned out to be 99% and the inhibition at 10 µM is 99%. For `CCn1c(=O)n(-c2ccc(-n3ncc4cccnc43)cc2)c2ncccc21` [Example 12, 1-Ethyl-3-[4-(1H-pyrazolo[3,4-b]pyridin-1-yl)phenyl]-1,3-dihydro-2H-imidazo[4,5-b]pyridin-2-one], the inhibition at 1 µM turned out to be 93% and the inhibition at 10 µM turned out to be 99%.

In the case of `CCn1c(=O)n(-c2ccc3c(c2)CCN3c2nc3ccccc3[nH]2)c2ncccc21` [Example 13, 3-[1-(1H-benzimidazol-2-yl)-2,3-dihydro-1H-indol-5-yl]-1-ethyl-1,3-dihydro-2H-imidazo[4,5-b]pyridin-2-one], the inhibition at 1 µM was found to be 100% and the inhibition at 10 µM was 101%. On to `CCn1c(=O)n(-c2ccc(N3CCn4c3nc3ccccc34)cc2)c2ncccc21` [Example 24, 3-[4-(2,3-dihydro-1H-imidazo[1,2-a]benzimidazol-1-yl)phenyl]-1-ethyl-1,3-dihydro-2H-imidazo[4,5-b]pyridin-2-one], for which the inhibition at 0.1 µM turned out to be 98%. On the same count and under the same terms, the result for `CCn1c(=O)n(-c2ccc(Nc3nc4ccc(F)cc4o3)cc2)c2ncccc21` [Example 27, 1-ethyl-3-{4-[(6-fluoro-1,3-benzoxazol-2-yl)amino]phenyl)-1,3-dihydro-2H-imidazo[4,5-b]pyridin-2-one] reads 102%. Turning to `CCn1c(=O)n(-c2ccc(Oc3cn4ccccc4n3)cc2)c2ncccc21` [Example 31, 1-ethyl-3-[4-(imidazo[1,2-a]pyridin-2-yloxy)phenyl]-1,3-dihydro-2H-imidazo[4,5-b]pyridin-2-one], the inhibition at 1 µM is 99% and the inhibition at 10 µM came to 98%. The like results for `CCn1c(=O)n(-c2ccc(Oc3nc4ccccc4n3CCO)cc2)c2ncccc21` [Example 39, 1-ethyl-3-(4-{[1-(2-hydroxyethyl)-1H-benzimidazol-2-yl]oxy}phenyl)-1,3-dihydro-2H-imidazo[4,5-b]pyridin-2-one] were, in that order, 100% and 101%. The like results for `CCn1c(=O)n(-c2ccc(Oc3nc4ccccc4n3CC(C)(C)O)cc2)c2ncccc21` [Example 40, 1-ethyl-3-(4-{[1-(2-hydroxy-2-methylpropyl)-1H-benzimidazol-2-yl]oxy}phenyl)-1,3-dihydro-2H-imidazo[4,5-b]pyridin-2-one] were, in that order, 99% and 101%. The like results for `CCn1c(=O)n(-c2ccc3c(c2)CCN3c2nc3ccccc3n2C)c2ncccc21` [Example 48, 1-ethyl-3-[1-(1-methyl-1H-benzimidazol-2-yl)-2,3-dihydro-1H-indol-5-yl]-1,3-dihydro-2H-imidazo[4,5-b]pyridin-2-one] were, in that order, 96% and 100%. In the case of `CCn1c(=O)n(-c2ccc(Oc3nc4ccccc4[nH]3)cc2)c2nccc(C)c21` [Example 64, 3-[4-(1H-benzimidazol-2-yloxy)phenyl]-1-ethyl-7-methyl-1,3-dihydro-2H-imidazo[4,5-b]pyridin-2-one dihydrochloride], the inhibition at 1 µM amounted to 100% and the inhibition at 10 µM is 101%.

In the case of `CCn1c(=O)n(-c2ccc3c(c2)CCN3c2nc3cccnc3[nH]2)c2ncccc21` [Example 71, 1-ethyl-3-[1-(3H-imidazo[4,5-b]pyridin-2-yl)-2,3-dihydro-1H-indol-5-yl]-1,3-dihydro-2H-imidazo[4,5-b]pyridin-2-one], the inhibition at 1 µM stood at 99% and the inhibition at 10 µM worked out at 97%. For the molecule `CC(C)n1c(=O)n(-c2ccc3c(c2)CCN3c2nc3cccnc3[nH]2)c2ncccc21` [Example 72, 3-[1-(3H-imidazo[4,5-b]pyridin-2-yl)-2,3-dihydro-1H-indol-5-yl]-1-(1-methylethyl)-1,3-dihydro-2H-imidazo[4,5-b]pyridin-2-one], the inhibition at 1 µM worked out at 104% and the inhibition at 10 µM was determined as 110%. On the same counts, the results for `CCn1c(=O)n(-c2ccc(Oc3nc4cccnc4[nH]3)cc2)c2ncccc21` [Example 75, 1-ethyl-3-[4-(3H-imidazo[4,5-b]pyridin-2-yloxy)phenyl]-1,3-dihydro-2H-imidazo[4,5-b]pyridin-2-one] are 98% and 101%.

For the molecule `CCn1c(=O)n(-c2ccc(Oc3nc4ncccc4n3C)cc2)c2ncccc21` [Example 85, 1-ethyl-3-{4-[(1-methyl-1H-imidazo[4,5-b]pyridin-2-yl)oxy]phenyl}-1,3-dihydro-2H-imidazo[4,5-b]pyridin-2-one], the inhibition at 1 µM turned out to be 95% and the inhibition at 10 µM was determined as 99%. On the same counts, the results for `CCn1c(=O)n(-c2ccc(Oc3nc4cccnc4n3C)cc2)c2ncccc21` [Example 86, 1-ethyl-3-{4-[(3-methyl-3H-imidazo[4,5-b]pyridin-2-yl)oxy]phenyl}-1,3-dihydro-2H-imidazo[4,5-b]pyridin-2-one] are 97% and 98%.

As for `CCCn1c(=O)n(-c2ccc(Oc3nc4cccnc4n3C)cc2)c2ncccc21` [Example 97, 3-{4-[(3-methyl-3H-imidazo[4,5-b]pyridin-2-yl)oxy]phenyl}-1-propyl-1,3-dihydro-2H-imidazo[4,5-b]pyridin-2-one], the inhibition at 1 µM was found to be 97% and the inhibition at 10 µM turned out to be 98%. The like results for `CC(C)n1c(=O)n(-c2ccc(Oc3nc4cccnc4n3C)cc2)c2ncccc21` [Example 98, 1-(1-methylethyl)-3-{4-[(3-methyl-3H-imidazo[4,5-b]pyridin-2-yl)oxy]phenyl}-1,3-dihydro-2H-imidazo[4,5-b]pyridin-2-one] were, in that order, 99% and 101%. On the same counts, the results for `Cn1c(Oc2ccc(-n3c(=O)n(C4CC4)c4cccnc43)cc2)nc2cccnc21` [Example 99, 1-cyclopropyl-3-{4-[(3-methyl-3H-imidazo[4,5-b]pyridin-2-yl)oxy]phenyl}-1,3-dihydro-2H-imidazo[4,5-b]pyridin-2-one] are 100% and 105%. `Cn1c(Oc2ccc(-n3c(=O)n(C(F)F)c4cccnc43)cc2)nc2ccccc21` [Example 100, 1-(difluoromethyl)-3-{4-[(1-methyl-1H-benzimidazol-2-yl)oxy]phenyl}-1,3-dihydro-2H-imidazo[4,5-b]pyridin-2-one]: the inhibition at 1 µM was 99% and the inhibition at 10 µM turned out to be 100%. On to `Cn1c(Oc2ccc(-n3c(=O)n(C(F)F)c4cccnc43)cc2)nc2cccnc21` [Example 101], for which the inhibition at 1 µM worked out at 101% and the inhibition at 10 µM came to 99%. The like results for `Cn1c(Oc2ccc(N3C(=O)C(C)(C)c4cccnc43)cc2)nc2ccccc21` [Example 102, 3,3-dimethyl-1-{4-[(1-methyl-1H-benzimidazol-2-yl)oxy]phenyl}-1,3-dihydro-2H-pyrrolo[2,3-b]pyridin-2-one] were, in that order, 99% and 106%. The like results for `Cn1c(Oc2ccc(-n3c(=O)n(C4CC4)c4cccnc43)cc2)nc2ccccc21` [Example 103, 1-cyclopropyl-3-{4-[(1-methyl-1H-benzimidazol-2-yl)oxy]phenyl}-1,3-dihydro-2H-imidazo[4,5-b]pyridin-2-one] were, in that order, 101% and 103%. On the same counts, the results for `CCn1c(=O)n(-c2ccc(Oc3nc4cccnc4n3C)cc2)c2ncc(Cl)cc21` [Example 107, 6-chloro-1-ethyl-3-{4-[(3-methyl-3H-imidazo[4,5-b]pyridin-2-yl)oxy]phenyl}-1,3-dihydro-2H-imidazo[4,5-b]pyridin-2-one] are 103% and 102%.

Source of the values: patent US8846713B2, “Fused heterocyclic compounds as phosphodiesterases (PDEs) inhibitors” (Takeda Pharmaceutical Company Limited, priority 2010, dated 2014).
